# Laboratory results reported in US12507703B2, “Methods, devices and compositions for preserving human milk” (The Trustees of Princeton University, priority 2023, dated 2025).
# Where “and” joins values, the source holds several entries; their conditions need not be identical. Equal values may be shown once. Where a SMILES comes first, the peptide text is derived from it.
# System: lipase
# Assay: Lipase/lipolysis assay (EnzChek Lipase Substrate, quenched BODIPY-fatty acid conjugate) on stored human milk; as to Lipase (RFU): test concentration or dose not given here
Compound,Lipase (RFU),Hit in lipase inhibition screen (in words),Effect on lipase / lipolysis (in words),Synergistic effect in combination testing (in words)
COC(=O)[C@]1(C)CC[C@]2(C(=O)O[C@@H]3O[C@H](CO)[C@@H](O)[C@H](O)[C@H]3O)CC[C@]3(C)C(=CC[C@@H]4[C@@]5(C)C[C@H](O)[C@H](O[C@@H]6OC[C@@H](O[C@@H]7O[C@H](CO)[C@@H](O)[C@H](O)[C@H]7O)[C@H](O)[C@H]6O)[C@@](C)(CO)C5CC[C@]43C)[C@H]2C1 (some centres unmarked) [Esculentoside H],1175.483 RFU,,,
OC[C@H]1OC(O)[C@H](O)[C@@H](O)[C@@H]1O (stereo partly drawn) [D--Glucose],992.2563 RFU,,,
NCC(=O)N1CCC[C@H]1C(=O)O [Glycyl-L-Proline] (H-Gly-Pro-OH),318.8964 RFU,significantly inhibited lipase activity,,
Cc1ccc(C(C)C)c(O)c1 [Thymol],1327.554 RFU and 943.6199 RFU,,,
COc1cc2c(=O)c(-c3ccc(O)cc3)coc2cc1O[C@@H]1O[C@H](CO)[C@@H](O)[C@H](O)[C@H]1O [Glycitin],799.4163 RFU,,,
O=C[C@@H](O)[C@H](O)[C@H](O)CO [Arabinose],1341.366 RFU,,,
CC1=C(C)C(=O)O[C@@H]([C@](C)(O)[C@H]2CC[C@H]3[C@@H]4[C@@H]5O[C@@H]5[C@@]5(O)CC=CC(=O)[C@]5(C)[C@H]4CC[C@]23C)C1 [Withanolide A],840.7696 RFU,,,
C=C(O[C@@H]1C=C(C(=O)O)C=C[C@H]1O)C(=O)O [Chorismic Acid],935.6375 RFU,,,
C[C@@H]1O[C@@H](O[C@H]2[C@H](Oc3c(-c4ccc(O)cc4)oc4cc(O)cc(O)c4c3=O)O[C@H](CO)[C@@H](O)[C@@H]2O)[C@H](O)[C@H](O)[C@H]1O [Kaempferol 3-neohesperidoside],1019.446 RFU,,,
CCCCCCCCCCC/C=C\CCCCC(=O)O [Petroselinic acid],886.6723 RFU,,,
O=S(O)(O)=S [Thiosulfate],1139.701 RFU,,,
CC(C)CC(=O)O[C@H](CC(=O)[O-])C[N+](C)(C)C [Isovalerylcarnitine],737.2804 RFU,,,
O=C(O)C[C@H](O)C(=O)O [(S)-Malic acid],1015.072 RFU and 818.4693 RFU,,,
CC[C@H]1OC(=O)C[C@@H](O)[C@H](C)[C@@H](O[C@@H]2O[C@H](C)[C@@H](O[C@H]3C[C@@](C)(O)[C@@H](O)[C@H](C)O3)[C@H](N(C)C)[C@H]2O)[C@@H](CC=O)C[C@@H](C)C(=O)/C=C/C(C)=C/[C@@H]1CO[C@@H]1O[C@H](C)[C@@H](O)[C@@H](OC)[C@H]1OC [Tylosin (phosphate)],1132.19 RFU,,,
COc1c(O)cc2oc3cc4c(c(O)c3c(=O)c2c1CC=C(C)C)CCC(C)(C)O4 [Compound 3-Isomangostin],1135.455 RFU,,,
OP(O)(O)=S [Thiophosphate],918.3175 RFU and 750.1825 RFU,,,
COc1cc(C=CC(=O)O)cc(OC)c1O (stereo in doubt) [Sinapinic acid],1040.338 RFU,,,
C/C(C=O)=C\CC[C@@H](C)[C@H]1CC[C@@]2(C)C3=CC[C@H]4C(C)(C)C(=O)CC[C@]4(C)C3=CC[C@]12C [Ganoderal A],1025.687 RFU,,,
Solanesol,985.7418 RFU,,,
CC(=O)O [Acetic Acid],1200.605 RFU,,,

Compound,Lipase (RFU),Hit in lipase inhibition screen (in words),Effect on lipase / lipolysis (in words),Synergistic effect in combination testing (in words)
CCCCCC/C=C\CCCCCCCCCCCC(=O)O [Paullinic acid],1192.519 RFU,,,
O=C(O)[C@@H]1CCN1 [L-Azetidine-2-carboxylic acid],953.3787 RFU,,,
Chicoric acid,1008.153 RFU,,,
CN1[C@@H]2CC[C@H]1C[C@@H](OC(=O)C(CO)c1ccccc1)C2 (some centres unmarked) [Atropine (sulfate monohydrate)],1099.713 RFU,,,
Inulin,793.2721 RFU and 805.6516 RFU and 1006.043 RFU,,did not inhibit or slow human milk lipolysis,did not have synergistic effects
Cc1cc(O)c2c(c1)C(=O)c1cccc(O[C@@H]3O[C@H](CO)[C@@H](O)[C@H](O)[C@H]3O)c1C2=O [Chrysophanol 8-O-glucoside],988.4419 RFU,,,
NC(COP(=O)(O)O)C(=O)O (racemic) [DL-O-Phosphoserine],728.85 RFU,,,
COc1cc2c(cc1O)CC[C@@H]1[C@@H]2CC[C@]2(C)C(=O)CC[C@@H]12 [Compound 2-Methoxyestrone],970.0321 RFU,,,
O=CCCO [Reuterin],1125.363 RFU,,,
CC1(C)CC[C@]2(C(=O)O)CC[C@]3(C)C(=CC[C@@H]4[C@@]5(C)C[C@H](O)[C@H](O)[C@@](C)(C(=O)O)[C@@H]5CC[C@]43C)[C@@H]2C1 [Medicagenic acid],975.8957 RFU,,,
NC(=O)[C@@H]1CCCN1C(=O)[C@H](Cc1ccccc1)NC(=O)[C@@H]1CCCN1C(=O)[C@@H](N)Cc1ccc(O)cc1 [Morphiceptin] (H-YPFP-NH2),1251.045 RFU,,,
C[C@]12CC[C@@H]3c4ccc(O)c(O)c4CC[C@H]3[C@@H]1CCC2=O [Compound 4-Hydroxyestrone],1068.255 RFU,,,
"CCCCCCCCCCCCCCCCCO [Compound 1-Heptadecanol, 1-Heptadecanol]",803.2986 RFU,,,
O=C(O)[C@H]1O[C@@H](Oc2cc(O)c3c(=O)cc(-c4ccc(O)cc4)oc3c2)[C@H](O)[C@@H](O)[C@@H]1O [Apigenin-7-glucuronide],991.8672 RFU,,,
NCCP(=O)(O)O [(2-Aminoethyl)phosphonic acid],914.5342 RFU,,,
O=c1c(O)c(-c2ccc(O)c(O)c2)oc2cc(O)c(O)c(O)c12 [Quercetagetin],891.7095 RFU,,,
COc1ccc(C=O)cc1OC [Veratraldehyde],898.3756 RFU and 979.6116 RFU,,,
COc1cc2c(cc1O)C[C@H]1c3c(cc(O)c(OC)c3-2)CCN1C [Boldine],931.6237 RFU,,,
C/C=C/c1cc(OC)c(OC)cc1OC [alpha-Asarone],956.156 RFU,,,
CCCCCCCC(=O)CCc1ccc(O)c(OC)c1 [Paradol],1060.26 RFU and 1109.933 RFU,,,

Compound,Lipase (RFU),Hit in lipase inhibition screen (in words),Effect on lipase / lipolysis (in words),Synergistic effect in combination testing (in words)
Isoliquiritin apioside,821.8958 RFU,,,
O=c1cc(-c2ccc(O)cc2)oc2cc(O)c([C@@H]3O[C@H](CO)[C@@H](O)[C@H](O)[C@H]3O[C@@H]3OC[C@H](O)[C@H](O)[C@H]3O)c(O)c12 [Isovitexin 2″-O-arabinoside],1033.269 RFU,,,
OC[C@H]1O[C@H](OCC2O[C@@H](O)[C@H](O)[C@@H](O)[C@@H]2O)[C@H](O)[C@@H](O)[C@H]1O (stereo partly drawn) [D-Melibiose],850.0787 RFU and 747.8737 RFU,,,
Ginkgolic Acid,924.5734 RFU,,,
O=C(O)C(O)Cc1c[nH]c2ccccc12 (centres unmarked) [Indolelactic acid],641.0066 RFU,,,
O=C(O)/C=C(\CC(=O)O)C(=O)O [trans-Aconitic acid],946.0721 RFU,,,
Nc1ncnc2c1ncn2[C@H]1C[C@H](O)[C@@H](CO)O1.O [2′-Deoxyadenosine monohydrate],945.7798 RFU,,,
"NC(=O)Cc1ccccc1 [Compound 2-Phenylacetamide, 2-Phenylacetamide]",955.8815 RFU,,,
CC(C)=C[C@H]1C[C@](C)(O)[C@@H]2[C@H]3CC[C@@H]4[C@@]5(C)CC[C@H](O[C@@H]6OC[C@H](O)[C@H](O[C@@H]7O[C@H](CO)[C@@H](O)[C@H](O)[C@H]7O[C@@H]7OC[C@@H](O)[C@H](O)[C@H]7O)[C@H]6O[C@@H]6O[C@@H](C)[C@H](O)[C@@H](O)[C@H]6O)C(C)(C)[C@@H]5CC[C@@]4(C)[C@@]34CO[C@@]2(C4)O1 [Jujuboside B],877.6814 RFU,,,
CC(C)=CCc1c(O)ccc2ccc(=O)oc12 [Osthenol],798.6222 RFU,,,
O=c1c(O[C@@H]2O[C@H](CO[C@@H]3O[C@H](CO)[C@@H](O)[C@H](O)[C@H]3O)[C@@H](O)[C@H](O)[C@H]2O)c(-c2ccc(O)c(O)c2)oc2cc(O)cc(O)c12 [Quercetin 3-gentiobioside],676.8795 RFU,,,
Pyropheophorbide-a,1205.079 RFU,,,
COC1=CC(=O)O[C@@H](/C=C/c2ccc3c(c2)OCO3)C1 [Methylsticin],1261.171 RFU,,,
COc1ccc(C(=O)O)cc1OC [Veratric acid],944.3491 RFU,,,
O=P([O-])([O-])OP(=O)(O)O.[Na+].[Na+] [Disodium pyrophosphate],1213.966 RFU,,,
CC1(C)[C@@H](O[C@H]2O[C@H](C(=O)O)[C@@H](O)[C@H](O)[C@H]2O[C@@H]2O[C@H](C(=O)O)[C@@H](O)[C@H](O)[C@H]2O)CC[C@]2(C)[C@H]3C(=O)C=C4[C@@H]5C[C@@](C)(C(=O)O)CC[C@]5(C)CC[C@@]4(C)[C@]3(C)CC[C@@H]12 [Ammonium glycyrrhizinate],918.7261 RFU,,,
O[C@H]1[C@H](O)[C@@H](O)[C@H](O)[C@@H](O)[C@H]1O [i-Inositol],1026.636 RFU and 1128.491 RFU,,,
NC(=O)c1ccc[n+]([C@@H]2O[C@H](COP(=O)([O-])OP(=O)(O)OC[C@H]3O[C@@H](n4cnc5c(N)ncnc54)[C@H](OP(=O)(O)O)[C@@H]3O)[C@@H](O)[C@H]2O)c1 [NADP],1113.421 RFU,,,
C[C@@H]1O[C@@H](O[C@H]2C[C@@H](O)[C@]3(CO)[C@H]4[C@H](O)C[C@]5(C)[C@@H](C6=CC(=O)OC6)CC[C@]5(O)[C@@H]4CC[C@]3(O)C2)[C@H](O)[C@H](O)[C@H]1O.O.O.O.O.O.O.O.O [Ouabain (Octahydrate)],901.7077 RFU,,,
